Target: T1, p38α:PROTAC:VHL ternary complex (Homo sapiens, UniProt P40337+Q16539)
T1 construct: encodes a region spanning amino acids 2-360 of the human p38α kinase; made in house; host or cells: E. coli (BL21-CodonPlus(DE3)-RIPL for p38α; BL21(DE3) for GST-VBC)
Experiment: In vitro ternary complex pull-down with GST-VBC bait, purified p38α
Format: binding
Method: FIGS. 14A, 14B, and 14C. p38α selectivity is discriminated by ternary complex formation. (A) Only p38α incubated in the presence of exemplary compound 50 can be immunoprecipitated with GST-tagged VHL/EloB/EloC (VBC). Immobilized VBC was used as a bait to trap purified p38α in the presence of vehicle (DMSO), compound 50, or compound 46 (represented in micromolar concentrations). The rightmost lane represents a 1:25 dilution of initial input protein used in each pull-down. (B) Proximity-based AlphaLISA assay detects significant p38α:compound 50:VHL ternary complex, but no p38α:compound 46:VHL ternary complex. His-p38α and GST-VBC were incubated in the presence of increasing concentrations of compound 50 and compound 46 and the extent of ternary complex formation was assessed by excitation with incident light with 1=680 nm and capture of the emission light at 1=615 nm. Error bars represent the SD from quadruplicate experiments. […] FLAGimmunoprecipitated lysates were separated by SDS-PAGE and assessed via western blots detecting HA (Ub). […]
Following this logic, to the present disclosure seeks to describe the selectivity of exemplary compound 50 for p38α at the ternary complex level through the use of an in vitro ternary complex pull-down assay. […] Similarly, exemplary PROTACs 46 and 50 were evaluated in a proximity-based luminescence assay (AlphaLISA) to detect ternary complex formation. […]

T1 sequence (Q16539 2-360 limits assumed): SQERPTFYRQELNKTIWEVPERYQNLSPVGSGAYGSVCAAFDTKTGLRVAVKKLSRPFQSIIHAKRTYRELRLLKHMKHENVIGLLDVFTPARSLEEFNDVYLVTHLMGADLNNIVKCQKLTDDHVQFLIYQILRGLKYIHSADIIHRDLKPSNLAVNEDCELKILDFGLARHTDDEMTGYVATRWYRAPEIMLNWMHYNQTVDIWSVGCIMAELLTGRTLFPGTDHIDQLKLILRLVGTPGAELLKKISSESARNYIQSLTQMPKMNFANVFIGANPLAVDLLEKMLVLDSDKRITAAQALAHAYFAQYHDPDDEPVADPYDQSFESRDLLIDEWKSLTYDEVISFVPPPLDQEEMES
T1 sequence (P40337 whole entry, the tested form may be a part): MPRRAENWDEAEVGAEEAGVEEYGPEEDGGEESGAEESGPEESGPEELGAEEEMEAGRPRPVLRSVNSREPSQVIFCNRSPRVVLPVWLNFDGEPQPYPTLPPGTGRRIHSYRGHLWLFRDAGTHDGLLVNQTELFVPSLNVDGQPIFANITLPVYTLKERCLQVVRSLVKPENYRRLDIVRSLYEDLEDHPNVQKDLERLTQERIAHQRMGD
T1 sequence (Q15370 whole entry partner, the tested form may be a part): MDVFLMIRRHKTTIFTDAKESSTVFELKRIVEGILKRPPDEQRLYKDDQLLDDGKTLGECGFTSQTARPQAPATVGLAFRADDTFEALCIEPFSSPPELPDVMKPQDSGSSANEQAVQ
T1 sequence (Q15369 whole entry partner, the tested form may be a part): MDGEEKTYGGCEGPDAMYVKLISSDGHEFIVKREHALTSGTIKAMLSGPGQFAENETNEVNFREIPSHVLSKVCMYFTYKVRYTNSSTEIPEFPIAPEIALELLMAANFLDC

| SMILES | enrichment of purified p38α on GST-VBC bait |
| --- | --- |
| COc1cc2c(Oc3ccc(NC(=O)C4(C(=O)Nc5ccc(F)cc5)CC4)cc3F)ccnc2cc1OCCOCCOCCOc1cc(-c2scnc2C)ccc1CNC(=O)[C@@H]1C[C@@H](O)CN1C(=O)[C@H](C(C)C)N1Cc2ccccc2C1=O [compound 46] | no detectable enrichment |
| COc1cc2c(Oc3ccc(NC(=O)C4(C(=O)Nc5ccc(F)cc5)CC4)cc3F)ccnc2cc1OCCCCOCCCCOCC(=O)N[C@H](C(=O)N1C[C@H](O)C[C@H]1C(=O)NCc1ccc(-c2scnc2C)cc1)C(C)(C)C [compound 50, N-(3-fluoro-4-((7-(4-(4-(2-(((S)-1-((2S,4R)-4-hydroxy-2-((4-(4-methylthiazol-5-yl)benzyl)carbamoyl)pyrrolidin-1-yl)-3,3-dimethyl-1-oxobutan-2-yl)amino)-2-oxoethoxy)butoxy)buto-xy)-6-methoxyquinolin-4-yl)oxy)phenyl)-N-(4-fluorophenyl)cyclopropane-1,1-dicarboxa-mide] | substantial enrichment of purified p38α |

Source: patent publication US20180353501A1 (Arvinas, Inc., priority 2017, published 2018)
